# In US20070093520A1, “Method of treatment of diarrhea-predominant irritable bowel syndrome in a subject” (priority 2005, published 2007):
# Test system: diarrhea-predominant IBS subjects
# Assay: 3007 Study: open-label 52-week safety study, adverse events and withdrawals
# Conditions: Study 3007
smiles,measurement,setting,value
"Cc1nccn1C[C@H]1CCc2c(c3cccc4c3n2CCC4)C1=O [cilansetron, (R)-(−)-4,5,6,8,9,10-hexahydro-10-[(2-methyl-1H-imidazol-1-yl)methyl]-11H-pyrido-[3,2,1-jk]-carbazol-11-one]",SAE: Hepatobiliary Disorders,P/C,0 n (%)
same,SAE: Immune System Disorders,P/C,1 (<1%) n (%)
same,SAE: Infections and Infestations,P/C,2 (<1%) n (%)
same,"SAE: Injury, Poisoning and Procedural Complications",P/C,0 n (%)
same,SAE: Irritable Bowel Syndrome Aggravated,P/C,0 n (%)
same,SAE: Leiomyoma NOS,P/C,0 n (%)
same,SAE: Loss of Consciousness,P/C,0 n (%)
same,SAE: Myocardial Infarction,P/C,0 n (%)
same,"SAE: Neoplasms Benign, Malignant and Unspecified (Incl Cysts and Polyps)",P/C,3 (1%) n (%)
same,SAE: Nervous System Disorders,P/C,0 n (%)
same,SAE: Non-Accidental Overdose,P/C,0 n (%)
same,SAE: Ovarian Cancer NOS*,P/C,0 n (%)
same,SAE: Ovarian Cystadenofibroma*,P/C,1 (<1%) n (%)
same,SAE: Pregnancy NOS*,P/C,0 n (%)
same,"SAE: Pregnancy, Puerperium and Perinatal Conditions",P/C,0 n (%)
same,SAE: Psychiatric Disorders,P/C,1 (<1%) n (%)
same,SAE: Psychotic Disorder NOS,P/C,1 (<1%) n (%)
same,SAE: Renal and Urinary Disorders,P/C,1 (<1%) n (%)
same,SAE: Reproductive System and Breast Disorders,P/C,0 n (%)
same,"SAE: Respiratory, Thoracic and Mediastinal Disorders",P/C,1 (<1%) n (%)
same,SAE: Sinusitis Acute NOS,P/C,1 (<1%) n (%)
same,SAE: Status Epilepticus,P/C,0 n (%)
same,SAE: Suicidal Ideation,P/C,1 (<1%) n (%)
same,SAE: Supraventricular Tachycardia,P/C,1 (<1%) n (%)
same,SAE: Urinary Tract Infection NOS,P/C,1 (<1%) n (%)
same,SAE: Uterine Polyp NOS*,P/C,0 n (%)
same,SAE: Vaginal Cyst*,P/C,0 n (%)
same,TEAEs that led to permanent discontinuation of study medication,P/C,18%
same,Total Number of Subjects with at Least One Serious Adverse Event,P/C,10 (4%) n (%)
same,subjects with at least one TEAE,P/C,78%
same,subjects with at least one treatment-emergent SAE,P/C,4%
same,withdrawal for AE,P/C,17%
same,withdrawal for lack of efficacy,P/C,21%
same,Number of deaths,P/C (N = 279),0 n (%)
same,Number of subjects who permanently discontinued study medication due to a TEAE (as reported on the AE CRF),P/C (N = 279),50 (18) n (%)
same,Number of subjects with at least one AE of special interest,P/C (N = 279),185 (66) n (%)
same,Number of subjects with at least one SAE,P/C (N = 279),10 (4) n (%)
same,Number of subjects with at least one TEAE,P/C (N = 279),217 (78) n (%)
same,Number of subjects with at least one TEAE leading to dose reduction,P/C (N = 279),4 (1) n (%)
same,Number of subjects with at least one related TEAE,P/C (N = 279),150 (54) n (%)
same,Number of subjects with at least one severe TEAE,P/C (N = 279),44 (16) n (%)
same,Number of subjects who died,"P/C, all enrolled",0 n (%)
same,Primary reason for withdrawal: Adverse event and lack of efficacy,"P/C, all enrolled",34 (12) n (%)
same,Primary reason for withdrawal: Baseline complaint/adverse event,"P/C, all enrolled",14 (5) n (%)
same,Primary reason for withdrawal: Lack of efficacy,"P/C, all enrolled",25 (9) n (%)
same,TEAE incidence: blood CK increased,female subjects,1%
same,TEAE incidence: constipation,female subjects,28%
same,TEAE incidence: diarrhea excluding infective,female subjects,9%
same,TEAE incidence: nausea and vomiting symptoms,female subjects,8%
same,TEAE incidence: sinusitis NOS,female subjects,9%
same,TEAE incidence: urinary tract infections,female subjects,8%
same,prevalence of constipation overall,fifth (>12 months) interval,3%
same,prevalence of TEAEs overall,first three-month interval,62%
same,prevalence of constipation overall,first three-month interval,17%
same,subjects discontinued due to AEs,first three-month interval,7%
same,prevalence of TEAEs overall,fourth three-month interval,54%
same,prevalence of constipation overall,fourth three-month interval,2%
same,subjects discontinued due to AEs,fourth three-month interval,2%
same,prevalence of TEAEs overall,last (>12 months) interval,70%
same,TEAE incidence: blood CK increased,male subjects,12%
same,TEAE incidence: constipation,male subjects,15%
same,TEAE incidence: diarrhea excluding infective,male subjects,3%
same,TEAE incidence: nausea and vomiting symptoms,male subjects,3%
same,TEAE incidence: sinusitis NOS,male subjects,3%
same,TEAE incidence: urinary tract infections,male subjects,1%
same,subjects who discontinued due to the SAEs,of 29 subjects with SAEs,Eleven
same,subjects with at least one constipation episode reported as related to study medication,of the 128 subjects with constipation,124 subjects
same,SAE: Abdominal Pain Upper,overall,1 (<1%) n (%)
same,SAE: Adenomyosis*,overall,1 (<1%) n (%)
same,SAE: Angina Pectoris,overall,2 (<1%) n (%)
same,SAE: Appendicitis,overall,1 (<1%) n (%)
same,SAE: Asthma NOS,overall,1 (<1%) n (%)
same,SAE: Benign Ovarian Tumour*,overall,1 (<1%) n (%)
same,SAE: Bladder Prolapse,overall,1 (<1%) n (%)
same,SAE: Bone Neoplasm Malignant,overall,1 (<1%) n (%)
same,SAE: Breast Cancer NOS*,overall,2 (<1%) n (%)
same,SAE: Bronchopneumonia NOS,overall,1 (<1%) n (%)
same,SAE: Calculus Ureteric,overall,1 (<1%) n (%)
same,SAE: Cardiac Disorders,overall,4 (<1%) n (%)
same,SAE: Chest Pain,overall,2 (<1%) n (%)
same,SAE: Cholelithiasis,overall,1 (<1%) n (%)
same,SAE: Colitis Ischaemic,overall,1 (<1%) n (%)
same,SAE: Depression,overall,1 (<1%) n (%)
same,SAE: Endometriosis*,overall,1 (<1%) n (%)
same,SAE: Fibroma NOS,overall,1 (<1%) n (%)
same,SAE: Food Allergy,overall,1 (<1%) n (%)
same,SAE: Gastritis NOS,overall,1 (<1%) n (%)
same,SAE: Gastroenteritis NOS,overall,1 (<1%) n (%)
same,SAE: Gastrointestinal Disorders,overall,4 (<1%) n (%)
same,SAE: General Disorders and Administration Site Conditions,overall,2 (<1%) n (%)
same,SAE: Hallucination NOS,overall,1 (<1%) n (%)
same,"SAE: Hallucination, Auditory",overall,1 (<1%) n (%)
same,SAE: Heat Exhaustion,overall,1 (<1%) n (%)
same,SAE: Hepatitis NOS,overall,1 (<1%) n (%)
same,SAE: Hepatobiliary Disorders,overall,2 (<1%) n (%)
same,SAE: Immune System Disorders,overall,1 (<1%) n (%)
same,SAE: Infections and Infestations,overall,3 (<1%) n (%)
same,"SAE: Injury, Poisoning and Procedural Complications",overall,2 (<1%) n (%)
same,SAE: Irritable Bowel Syndrome Aggravated,overall,1 (<1%) n (%)
same,SAE: Leiomyoma NOS,overall,1 (<1%) n (%)
same,SAE: Loss of Consciousness,overall,2 (<1%) n (%)
same,SAE: Myocardial Infarction,overall,1 (<1%) n (%)
same,"SAE: Neoplasms Benign, Malignant and Unspecified (Incl Cysts and Polyps)",overall,6 (1%) n (%)
same,SAE: Nervous System Disorders,overall,2 (<1%) n (%)
same,SAE: Non-Accidental Overdose,overall,1 (<1%) n (%)
same,SAE: Ovarian Cancer NOS*,overall,1 (<1%) n (%)
same,SAE: Ovarian Cystadenofibroma*,overall,1 (<1%) n (%)
same,SAE: Pregnancy NOS*,overall,1 (<1%) n (%)
same,"SAE: Pregnancy, Puerperium and Perinatal Conditions",overall,1 (<1%) n (%)
same,SAE: Psychiatric Disorders,overall,1 (<1%) n (%)
same,SAE: Psychotic Disorder NOS,overall,1 (<1%) n (%)
same,SAE: Renal and Urinary Disorders,overall,2 (<1%) n (%)
same,SAE: Reproductive System and Breast Disorders,overall,2 (<1%) n (%)
same,"SAE: Respiratory, Thoracic and Mediastinal Disorders",overall,1 (<1%) n (%)
same,SAE: Sinusitis Acute NOS,overall,1 (<1%) n (%)
same,SAE: Status Epilepticus,overall,1 (<1%) n (%)
same,SAE: Suicidal Ideation,overall,1 (<1%) n (%)
same,SAE: Supraventricular Tachycardia,overall,1 (<1%) n (%)
same,SAE: Urinary Tract Infection NOS,overall,1 (<1%) n (%)
same,SAE: Uterine Polyp NOS*,overall,1 (<1%) n (%)
same,SAE: Vaginal Cyst*,overall,1 (<1%) n (%)
same,TEAE incidence: GI disorders,overall,50%
same,TEAE incidence: Infections and infestations,overall,32%
same,TEAE incidence: Investigations,overall,24%
same,TEAE incidence: Musculoskeletal and connective tissue disorders,overall,16%
same,TEAE incidence: Nervous system disorders,overall,12%
same,TEAE incidence: abdominal pain NOS,overall,7%
same,TEAE incidence: back pain,overall,3%
same,TEAE incidence: blood CK increased,overall,5%
same,TEAE incidence: constipation,overall,24%
same,TEAE incidence: diarrhea NOS,overall,6%
same,TEAE incidence: fecal occult blood positive,overall,6%
same,TEAE incidence: flatulence,overall,5%
same,TEAE incidence: headache NOS,overall,6%
same,TEAE incidence: nasopharyngitis,overall,5%
same,TEAE incidence: nausea,overall,5%
same,TEAE incidence: sinusitis NOS,overall,7%
same,TEAE incidence: upper respiratory tract infection NOS,overall,5%
same,TEAE incidence: urinary tract infection NOS,overall,5%
same,TEAEs that led to dose reduction,overall,2%
same,TEAEs that led to permanent discontinuation: GI disorders,overall,12%
same,TEAEs that led to permanent discontinuation: abdominal pain NOS,overall,2%
same,TEAEs that led to permanent discontinuation: diarrhea NOS,overall,1%
same,TEAEs that led to permanent discontinuation: flatulence,overall,1%
same,Total Number of Subjects with at Least One Serious Adverse Event,overall,29 (5%) n (%)
same,discontinued study medication due to constipation,overall,5%
same,dose reduction due to constipation,overall,1%
same,"overall incidence of TEAEs possibly, probably, or unlikely related to study medication",overall,56%
same,related TEAE: abdominal pain NOS,overall,6%
same,related TEAE: blood CK increased,overall,3%
same,related TEAE: constipation,overall,23%
same,related TEAE: diarrhea NOS,overall,3%
same,related TEAE: fecal occult blood positive,overall,3%
same,related TEAE: flatulence,overall,4%
same,related TEAE: headache NOS,overall,4%
same,related TEAE: nausea,overall,3%
same,severe TEAE: abdominal pain NOS,overall,2%
same,severe TEAE: constipation,overall,3%
same,severe TEAE: headache NOS,overall,1%
same,special interest TEAEs,overall,69%
same,subjects with at least one TEAE,overall,82%
same,subjects with severe TEAEs,overall,18%
same,withdrawal for AE (combined categories),overall,15%
same,withdrawal for lack of efficacy (combined categories),overall,18%
same,prevalence of TEAEs overall,second three-month interval,55%
same,prevalence of constipation overall,second three-month interval,9%
same,subjects discontinued due to AEs,second three-month interval,6%
same,prevalence of TEAEs overall,third three-month interval,54%
same,prevalence of constipation overall,third three-month interval,5%
same,subjects discontinued due to AEs,third three-month interval,2%
